Measured values taken from patent US20100063026A1, “ANTIBACTERIAL QUINOLINE DERIVATIVES” (priority 2007, published 2010).
Values after ≈ are worked out from the molar mass of the structure shown.

How the values were obtained:
[1] = system: Streptococcus pneumoniae (ATCC6305); assay: Microtitre plate IC90 determination against non-mycobacterial strains: S. pneumoniae; format: cell-based; settings: 90% inhibitory concentration for bacterial growth, 37° C., resazurin fluorescence; for IC90 SPN 1 6305: 24 hours; for IC90: Streptococcus pneumoniae, ATCC6305, 24 h, read-out: IC90 SPN 1 6305
Protocol: (§1) The bacteria used in this study were grown overnight in flasks containing 100 ml Mueller-Hinton Broth (Becton Dickinson-cat. no. 275730) in sterile de-ionized water, with shaking, at 37° C. Stocks (0.5 ml/tube) were stored at -70° C. until use. Bacteria titrations were performed in microtiter plates to detect the TCID50, in which the TCID50 represents the dilution that gives rise to bacterial growth in 50% of inoculated cultures. In general, an inoculum level of approximately 100 TCID50 was used for susceptibility testing. […] Therefore resazurin (0.6 mg/ml) was added in a volume of 20 μl to all wells 3 hours after inoculation, and the plates were re-incubated overnight. A change in colour from blue to pink indicated the growth of bacteria.

M. smegmatis ATCC607 = assay: In-vitro anti-bacterial activity against strain M. smegmatis ATCC607; settings: for IC90: Mycolicibacterium smegmatis, ATCC607, 48 h, read-out: IC90 MSM 1 ATCC607, 90% inhibitory concentration for bacterial growth, 37° C., Alamar Blue fluorescence; for IC90 MSM 1 ATCC607: 90% inhibitory concentration for bacterial growth, 48 hours, 37° C., Alamar Blue fluorescence
Protocol: Flat-bottom, sterile 96-well plastic microtiter plates were filled with 180 μl of sterile deionized water, supplemented with 0.25% BSA. Subsequently, stock solutions (7.8× final test concentration) of compounds were added in 45 μl volumes to a series of duplicate wells in column 2 so as to allow evaluation of their effects on bacterial growth. Serial five-fold dilutions (45 μl in 180 μl) were made directly in the microtiter plates from column 2 to 11 using a customised robot system (Zymark Corp., Hopkinton, Mass.). Pipette tips were changed after every 3 dilutions to minimize pipetting errors with high hydrophobic compounds. Untreated control samples with (column 1) and without (column 12) inoculum were included in each microtiter plate. Approximately 250 CFU per well of bacteria inoculum, in a volume of 100 μl in 2.8× Mueller-Hinton broth medium, was added to the rows A to H, except column 12. The same volume of broth medium without inoculum was added to column 12 in row A to H. The cultures were incubated at 37° C. for 48 hours in a humidified 5% CO2 atmosphere (incubator with open air valve and continuous ventilation). At the end of incubation, two days after inoculation, the bacterial growth was quantitated fluorometrically. Therefore Alamar Blue (10×) was added to all wells in a volume of 20 μl and plates were incubated for another 2 hours at 50° C.
The fluorescence was read in a computer-controlled fluorometer (Cytofluor, Biosearch) at an excitation wavelength of 530 nm and an emission wavelength of 590 nm (gain 30). The percentage growth inhibition achieved by the compounds was calculated according to standard methods and expressed as IC90 (μg/ml) which defines the 90% inhibitory concentration for bacterial growth.

[2] = system: Staphylococcus aureus (ATCC29213); assay: Microtitre plate IC90 determination against non-mycobacterial strains: S. aureus; format: cell-based; settings: 90% inhibitory concentration for bacterial growth, 37° C., resazurin fluorescence; for IC90 STA 1 B29213: 24 hours; for IC90: Staphylococcus aureus, ATCC29213, 24 h, read-out: IC90 STA 1 B29213
Protocol: as §1

SMILES | IC90 SPN 1 6305 [1] | IC90 (M. smegmatis ATCC607) | IC90 STA 1 B29213 [2] | IC90 [1] | IC90 MSM 1 ATCC607 (M. smegmatis ATCC607) | IC90 [2]
COc1nc2ccc(Br)cc2cc1C(c1ccccc1)C(O)(CCCCN1CCC1)c1ccccc1 (single isomer, unassigned) [Compound 41] | 1.7 µg/mL (≈ 3.12 µM) | 1.7 µg/mL (≈ 3.12 µM) | 1.7 µg/mL (≈ 3.12 µM) | – | – | –
COc1nc2ccc(Br)cc2cc1C(c1ccccc1)C(O)(CCCCNC1CC2CCC1C2)c1ccc2ccccc2c1 (stereo not drawn) [Compound 39] | – | – | – | 0.4 µg/mL (≈ 0.616 µM) | 1.8 µg/mL (≈ 2.77 µM) | 1.8 µg/mL (≈ 2.77 µM)
COc1nc2ccc(Br)cc2cc1C(c1ccccc1)C(O)(CCCCN1CCC1)c1ccccc1 (single isomer, unassigned) [Compound 42] | 4.3 µg/mL (≈ 7.88 µM) | – | 8.6 µg/mL (≈ 15.8 µM) | – | 2.2 µg/mL (≈ 4.03 µM) | –
COc1nc2ccc(Br)cc2cc1C(c1ccccc1)C(O)(CCCCN1CCCN(C)CC1)c1ccc2ccccc2c1 (stereo not drawn) [Compound 35c] | 0.4 µg/mL (≈ 0.613 µM) | – | 2.1 µg/mL (≈ 3.22 µM) | – | 1.5 µg/mL (≈ 2.3 µM) | –
COc1nc2ccc(Br)cc2cc1C(c1ccccc1)C(O)(CCCCN1CCN(C2CCN(Cc3ccccc3)C2)CC1)c1ccc2ccccc2c1 (single isomer, unassigned) [Compound 30b] | 31 µg/mL (≈ 39.5 µM) | – | 62 µg/mL (≈ 79.1 µM) | – | 31 µg/mL (≈ 39.5 µM) | –
COc1nc2ccc(Br)cc2cc1C(c1ccccc1)C(O)(CCCCN1CCC(N2CCCCC2)CC1)c1ccc2ccccc2c1 (single isomer, unassigned) [Compound 28] | 2.8 µg/mL (≈ 3.96 µM) | 2.5 µg/mL (≈ 3.54 µM) | 2.2 µg/mL (≈ 3.11 µM) | – | – | –
COc1nc2ccc(Br)cc2cc1C(c1ccccc1)C(O)(CCCCN1CC2CC1CN2CC(C)C)c1ccc2ccccc2c1 (single isomer, unassigned) [Compound 53] | – | 1.6 µg/mL (≈ 2.31 µM) | – | 0.1 µg/mL (≈ 0.144 µM) | – | 2.2 µg/mL (≈ 3.18 µM)
COc1nc2ccc(Br)cc2cc1C(c1ccccc1)C(O)(CCCCN1CC2CC1CN2Cc1ccccc1)c1ccccc1 (single isomer, unassigned) [Compound 48] | – | 2.4 µg/mL (≈ 3.55 µM) | – | 0.5 µg/mL (≈ 0.739 µM) | – | 2.1 µg/mL (≈ 3.1 µM)
COc1nc2ccc(Br)cc2cc1C(c1ccccc1)C(O)(CCCCNCCN(C)C)c1ccccc1 (single isomer, unassigned) [Compound 66] | – | – | 1.8 µg/mL (≈ 3.12 µM) | – | – | –
COc1nc2ccc(Br)cc2cc1C(c1ccccc1)C(O)(CCCCNC1CC2CCC1C2)c1ccc2ccccc2c1 (stereo not drawn) [Compound 40] | 0.5 µg/mL (≈ 0.77 µM) | – | 1.6 µg/mL (≈ 2.46 µM) | – | 0.4 µg/mL (≈ 0.616 µM) | –
COc1nc2ccc(Br)cc2cc1C(c1ccccc1)C(O)(CCCCN1CC2CC1CN2Cc1ccccc1)c1ccc2ccccc2c1 (single isomer, unassigned) [Compound 20] | – | – | 11.5 µg/mL (≈ 15.8 µM) | 0.6 µg/mL (≈ 0.826 µM) | 2.3 µg/mL (≈ 3.16 µM) | –
COc1nc2ccc(Br)cc2cc1C(c1ccccc1)C(O)(CCCCc1ccccc1)CCCCN1CC2CC1CN2Cc1ccccc1 (single isomer, unassigned) [Compound 16] | – | 0.6 µg/mL (≈ 0.819 µM) | 7.3 µg/mL (≈ 9.96 µM) | 1.5 µg/mL (≈ 2.05 µM) | – | –
COc1nc2ccc(Br)cc2cc1C(c1ccccc1)C(O)(CCCCN(C)C1CCN(C)CC1)c1ccccc1 (single isomer, unassigned) [Compound 5] | 2.0 µg/mL (≈ 3.24 µM) | – | 7.8 µg/mL (≈ 12.6 µM) | – | 2.0 µg/mL (≈ 3.24 µM) | –
COc1nc2ccc(Br)cc2cc1C(c1ccccc1)C(O)(CCCCN1CCC(N2CCCCC2)CC1)CCc1ccccc1 (single isomer, unassigned) [Compound 10] | 2.2 µg/mL (≈ 3.21 µM) | – | 2.2 µg/mL (≈ 3.21 µM) | – | 2.4 µg/mL (≈ 3.5 µM) | –
COc1nc2ccccc2cc1C(c1ccccc1)C(O)(CCCCN1CC2CC1CN2)c1ccc2ccccc2c1 (single isomer, unassigned) [Compound 18] | – | 1.8 µg/mL (≈ 3.23 µM) | – | 1.8 µg/mL (≈ 3.23 µM) | – | 1.8 µg/mL (≈ 3.23 µM)
COc1nc2ccc(Br)cc2cc1C(c1ccccc1)C(O)(CCCCNC1CC2CCC1C2)c1ccc2ccccc2c1 (single isomer, unassigned) [Compound 38] | – | 2.1 µg/mL (≈ 3.23 µM) | – | 2.6 µg/mL (≈ 4 µM) | – | 10.3 µg/mL (≈ 15.9 µM)
COc1nc2ccc(Br)cc2cc1C(c1ccccc1)C(O)(CCCCNCCN(C)C)c1ccccc1 (single isomer, unassigned) [Compound 65] | – | 1.8 µg/mL (≈ 3.12 µM) | – | – | – | 1.8 µg/mL (≈ 3.12 µM)
COc1nc2ccc(Br)cc2cc1C(c1ccccc1)C(O)(CCCCN1CC2CC1CN2C)c1ccc2ccccc2c1 (single isomer, unassigned) [Compound 57] | – | – | 2.3 µg/mL (≈ 3.53 µM) | – | 2.1 µg/mL (≈ 3.23 µM) | –
COc1nc2ccc(Br)cc2cc1C(c1ccccc1)C(O)(CCCCN1CC2CC1CN2Cc1ccccc1)CCCc1ccccc1 (single isomer, unassigned) [Compound 15] | 2.6 µg/mL (≈ 3.62 µM) | – | 11.4 µg/mL (≈ 15.9 µM) | – | 4.0 µg/mL (≈ 5.56 µM) | –

SMILES | IC90 SPN 1 6305 [1] | IC90 (M. smegmatis ATCC607) | IC90 STA 1 B29213 [2] | IC90 [1] | IC90 MSM 1 ATCC607 (M. smegmatis ATCC607) | IC90 [2]
COc1nc2ccc(Br)cc2cc1C(c1ccc(Cl)cc1)C(O)(CCCCN1CC2CC1CN2Cc1ccccc1)c1ccc2ccccc2c1 (single isomer, unassigned) [Compound 37] | 0.5 µg/mL (≈ 0.657 µM) | – | 2.7 µg/mL (≈ 3.55 µM) | – | 2.1 µg/mL (≈ 2.76 µM) | –
CN1CCCN(CCCCC(O)(c2ccc3ccccc3c2)C(c2ccccc2)c2cc3cc(Br)ccc3[nH]c2=O)CC1 (single isomer, unassigned) [Compound 45] | – | 2 µg/mL (≈ 3.13 µM) | 2.3 µg/mL (≈ 3.6 µM) | – | – | –
COc1nc2ccc(Br)cc2cc1C(c1ccccc1)C(O)(CCCCN(C)C1CCN(C)CC1)c1ccccc1 (single isomer, unassigned) [Compound 4] | – | 2 µg/mL (≈ 3.24 µM) | – | 2 µg/mL (≈ 3.24 µM) | – | 9.8 µg/mL (≈ 15.9 µM)
COc1nc2ccc(Br)cc2cc1C(c1ccccc1)C(O)(CCCCN(C)CCc1ccccn1)c1ccccc1 (stereo not drawn) [Compound 7] | 2.0 µg/mL (≈ 3.2 µM) | – | 2.0 µg/mL (≈ 3.2 µM) | – | 2.0 µg/mL (≈ 3.2 µM) | –
COc1nc2ccc(Br)cc2cc1C(c1ccccc1)C(O)(CCCCN(C)CCN(C)C)c1ccccc1 (single isomer, unassigned) [Compound 51] | – | 9.4 µg/mL (≈ 15.9 µM) | – | 9.4 µg/mL (≈ 15.9 µM) | – | 9.4 µg/mL (≈ 15.9 µM)
COc1nc2ccc(Br)cc2cc1C(c1ccccc1)C(O)(CCCCN1CCN(C2CCN(Cc3ccccc3)C2)CC1)c1ccc2ccccc2c1 (single isomer, unassigned) [Compound 31] | 15.6 µg/mL (≈ 19.9 µM) | – | 12.4 µg/mL (≈ 15.8 µM) | – | 4.4 µg/mL (≈ 5.61 µM) | –
COc1nc2ccc(Br)cc2cc1C(c1ccccc1)C(O)(CCCCCN1CCCN(C)CC1)c1ccc2ccccc2c1 (single isomer, unassigned) [Compound 54] | 2.1 µg/mL (≈ 3.15 µM) | 2.1 µg/mL (≈ 3.15 µM) | – | – | – | 2.1 µg/mL (≈ 3.15 µM)
COc1nc2ccc(Br)cc2cc1C(c1ccccc1)C(O)(CCCCN1CCCN(C)CC1)c1ccc2ccccc2c1 (stereo not drawn) [Compound 34d] | 0.4 µg/mL (≈ 0.613 µM) | – | 2.1 µg/mL (≈ 3.22 µM) | – | 2.1 µg/mL (≈ 3.22 µM) | –
COc1nc2ccc(Br)cc2cc1C(c1ccccc1)C(O)(CCCCN1CC2CC1CN2C)c1ccc2ccccc2c1 (single isomer, unassigned) [Compound 56] | – | 2.1 µg/mL (≈ 3.23 µM) | – | – | – | 2.3 µg/mL (≈ 3.53 µM)
COc1nc2ccccc2cc1C(c1ccccc1)C(O)(CCCCN1CC2CC1CN2)c1ccc2ccccc2c1 (single isomer, unassigned) [Compound 19] | 2.2 µg/mL (≈ 3.94 µM) | – | 1.8 µg/mL (≈ 3.23 µM) | – | 1.6 µg/mL (≈ 2.87 µM) | –
COc1nc2ccc(Br)cc2cc1C(c1ccccc1)C(O)(CCCCN1CC2CC1CN2CC(C)C)c1ccc2ccccc2c1 (stereo not drawn) [Compound 52] | – | 2.2 µg/mL (≈ 3.18 µM) | – | 0.5 µg/mL (≈ 0.722 µM) | – | 2.2 µg/mL (≈ 3.18 µM)
COc1nc2ccc(Br)cc2cc1C(c1ccccc1)C(O)(CCCCN1CC2CC1CN2CCN(C)C)c1ccc2ccccc2c1 (single isomer, unassigned) [Compound 61] | – | 2.2 µg/mL (≈ 3.11 µM) | – | – | – | 2.2 µg/mL (≈ 3.11 µM)
COc1ccc(N2CCN(CCCCC(O)(c3ccc4ccccc4c3)C(c3ccccc3)c3cc4cc(Br)ccc4nc3OC)CC2)cc1 (single isomer, unassigned) [Compound 27] | – | – | 18.4 µg/mL (≈ 25.2 µM) | – | – | –
COc1nc2ccc(Br)cc2cc1C(c1ccccc1)C(O)(CCCCN1CC2CC1CN2C1CCN(C)CC1)c1ccc2ccccc2c1 (single isomer, unassigned) [Compound 64] | – | – | 2.3 µg/mL (≈ 3.13 µM) | – | 1.3 µg/mL (≈ 1.77 µM) | –
COc1nc2ccc(Br)cc2cc1C(c1ccccc1)C(O)(CCCCN1CC2CC1CN2CCN(C)C)c1ccc2ccccc2c1 (single isomer, unassigned) [Compound 62] | – | – | 2.2 µg/mL (≈ 3.11 µM) | – | – | –
COc1nc2ccc(Br)cc2cc1C(c1ccccc1)C(O)(CCCCN1CCCN(C)CC1)c1ccc2ccccc2c1 (single isomer, unassigned) [Compound 34] | – | 2.1 µg/mL (≈ 3.22 µM) | – | – | – | 2.1 µg/mL (≈ 3.22 µM)
COc1nc2ccc(Br)cc2cc1C(c1ccccc1)C(O)(CCCCNC1CC2CCC1C2)c1ccccc1 (stereo not drawn) [Compound 60] | – | 1.9 µg/mL (≈ 3.17 µM) | – | – | – | 1.9 µg/mL (≈ 3.17 µM)
COc1nc2ccc(Br)cc2cc1C(c1ccccc1)C(O)(CCCCN1CC2CC1CN2C1CCN(C)CC1)c1ccc2ccccc2c1 (single isomer, unassigned) [Compound 63] | – | 2.3 µg/mL (≈ 3.13 µM) | – | – | – | 2.3 µg/mL (≈ 3.13 µM)
